The values below are quoted from earlier work in patent publication US7563785B2, “Quetiapine analogs and methods of use thereof” (Hypnion, Inc., priority 2004, dated 2009).

pKi: −log10 of the molar value.

For this data set, the target named is T1, human recombinant M1 expressed in CHO cells (Homo sapiens, UniProt P11229).
T1 construct: purchased PerkinElmer, Inc., Wellesley, Mass; host or cells: CHO cells
T1 sequence (P11229 1-460): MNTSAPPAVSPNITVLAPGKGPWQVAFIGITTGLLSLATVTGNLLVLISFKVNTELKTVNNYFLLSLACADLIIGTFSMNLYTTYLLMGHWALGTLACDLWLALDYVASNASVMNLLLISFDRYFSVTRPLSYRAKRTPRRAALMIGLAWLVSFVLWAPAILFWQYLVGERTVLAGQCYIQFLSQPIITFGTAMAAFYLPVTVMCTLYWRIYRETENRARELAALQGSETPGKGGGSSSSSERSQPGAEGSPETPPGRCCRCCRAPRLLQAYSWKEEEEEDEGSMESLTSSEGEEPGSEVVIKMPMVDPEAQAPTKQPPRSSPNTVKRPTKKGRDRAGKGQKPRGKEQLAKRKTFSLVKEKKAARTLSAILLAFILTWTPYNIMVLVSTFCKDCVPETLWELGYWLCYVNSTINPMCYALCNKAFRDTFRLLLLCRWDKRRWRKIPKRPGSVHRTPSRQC
Particulars: reference compounds; read-out: Ki of reference compounds in M1 binding assay.

Regarding `C[N+]1(C)CCC(OC(=O)C(c2ccccc2)c2ccccc2)CC1` [4-DAMP methiodide], the pKi (as a rule, the negative decadic logarithm of the Ki, by convention in mol/L) was 9.57.
